Experimental data published in ChEMBL document CHEMBL3525964 (Drug Metab Dispos, 2012).

How the values were obtained:
Cytochrome P450 3A4 = Cytochrome P450 3A4 (Homo sapiens, UniProt P08684); assay: Drug metabolism in human liver microsomes assessed as CYP3A4-mediated drug depletion in presence of CYP3A4 inhibitor ketoconazole by LC-MS/MS method; format: ADME
Cytochrome P450 2C9 [1] = target: T1, Cytochrome P450 2C9 (Homo sapiens, UniProt P11712); assay: Drug metabolism in human liver microsomes assessed as CYP3A4-mediated drug depletion in presence of CYP2C9 inhibitor sulfaphenazole by LC-MS/MS method; format: ADME
T1 sequence (P11712 whole entry): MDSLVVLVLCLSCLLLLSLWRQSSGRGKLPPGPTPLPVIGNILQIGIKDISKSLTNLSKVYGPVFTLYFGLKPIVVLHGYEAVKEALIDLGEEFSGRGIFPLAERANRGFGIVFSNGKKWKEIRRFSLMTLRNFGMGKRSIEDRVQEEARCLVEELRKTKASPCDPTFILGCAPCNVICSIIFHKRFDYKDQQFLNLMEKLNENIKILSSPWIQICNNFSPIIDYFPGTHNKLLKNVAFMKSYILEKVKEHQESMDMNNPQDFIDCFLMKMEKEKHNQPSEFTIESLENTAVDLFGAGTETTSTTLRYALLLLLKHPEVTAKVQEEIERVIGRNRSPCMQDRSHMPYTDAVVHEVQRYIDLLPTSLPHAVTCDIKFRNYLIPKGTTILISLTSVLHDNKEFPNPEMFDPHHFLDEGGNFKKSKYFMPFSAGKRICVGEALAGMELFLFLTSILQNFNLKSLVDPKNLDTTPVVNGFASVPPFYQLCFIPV

[2] = Drug excretion in feces of human treated with [14C}LY2452473 at 15 mg, po administered as single dose by HPLC analysis; format: ADME, organism-based; conditions: read-out: Drug excretion
[3] = Drug level in feces of human treated with [14C}LY2452473 at 15 mg, po administered as single dose by LC-MS/MS method; format: ADME, organism-based; conditions: in vivo
Cytochrome P450 2C8 = target: T2, Cytochrome P450 2C8 (Homo sapiens, UniProt P10632); assay: Drug metabolism assessed as human recombinant CYP2C8-mediated drug depletion by LC-MS/MS method; format: ADME; conditions: recombinant enzyme
T2 sequence (P10632 whole entry): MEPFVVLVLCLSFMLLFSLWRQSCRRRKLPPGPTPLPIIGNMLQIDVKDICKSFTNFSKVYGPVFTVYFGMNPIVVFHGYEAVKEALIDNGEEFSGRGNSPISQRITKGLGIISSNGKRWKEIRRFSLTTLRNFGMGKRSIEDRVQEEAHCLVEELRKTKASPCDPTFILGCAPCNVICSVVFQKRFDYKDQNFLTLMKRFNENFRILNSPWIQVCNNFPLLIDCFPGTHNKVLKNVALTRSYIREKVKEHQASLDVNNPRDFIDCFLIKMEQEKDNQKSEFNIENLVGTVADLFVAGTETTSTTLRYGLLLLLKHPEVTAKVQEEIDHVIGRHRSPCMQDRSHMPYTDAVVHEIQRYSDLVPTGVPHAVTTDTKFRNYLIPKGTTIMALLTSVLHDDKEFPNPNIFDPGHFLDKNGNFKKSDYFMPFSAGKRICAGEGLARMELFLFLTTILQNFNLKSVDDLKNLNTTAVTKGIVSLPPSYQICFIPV

Cytochrome P450 2E1 = Cytochrome P450 2E1 (Homo sapiens, UniProt P05181); assay: Drug metabolism assessed as human recombinant CYP2E1-mediated drug depletion by LC-MS/MS method; format: ADME; conditions: recombinant enzyme
Sequence of Cytochrome P450 2E1 (P05181 whole entry): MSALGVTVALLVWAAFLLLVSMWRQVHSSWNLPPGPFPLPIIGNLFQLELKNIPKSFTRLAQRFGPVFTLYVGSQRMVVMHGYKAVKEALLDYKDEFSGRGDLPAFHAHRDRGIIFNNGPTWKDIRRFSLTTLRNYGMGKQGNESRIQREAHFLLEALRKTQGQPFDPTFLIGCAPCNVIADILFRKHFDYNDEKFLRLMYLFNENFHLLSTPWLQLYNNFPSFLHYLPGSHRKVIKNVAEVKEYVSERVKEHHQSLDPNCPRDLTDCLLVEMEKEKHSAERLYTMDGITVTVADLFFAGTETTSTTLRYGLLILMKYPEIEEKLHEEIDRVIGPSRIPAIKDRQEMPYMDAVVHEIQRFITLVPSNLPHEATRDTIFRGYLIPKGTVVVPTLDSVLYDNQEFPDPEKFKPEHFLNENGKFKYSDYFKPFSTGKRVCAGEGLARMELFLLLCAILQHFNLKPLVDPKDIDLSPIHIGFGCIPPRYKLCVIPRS

Cytochrome P450 2C9 [4] = target: T1, Cytochrome P450 2C9; assay: Intrinsic clearance assessed as human recombinant CYP2C9-mediated drug depletion per pmol protein by LC-MS/MS method; format: ADME; conditions: recombinant enzyme
Cytochrome P450 2C19 [5] = target: T3, Cytochrome P450 2C19 (Homo sapiens, UniProt P33261); assay: Intrinsic clearance assessed as human recombinant CYP2C19-mediated drug depletion per pmol protein by LC-MS/MS method; format: ADME; conditions: recombinant enzyme
T3 sequence (P33261 whole entry): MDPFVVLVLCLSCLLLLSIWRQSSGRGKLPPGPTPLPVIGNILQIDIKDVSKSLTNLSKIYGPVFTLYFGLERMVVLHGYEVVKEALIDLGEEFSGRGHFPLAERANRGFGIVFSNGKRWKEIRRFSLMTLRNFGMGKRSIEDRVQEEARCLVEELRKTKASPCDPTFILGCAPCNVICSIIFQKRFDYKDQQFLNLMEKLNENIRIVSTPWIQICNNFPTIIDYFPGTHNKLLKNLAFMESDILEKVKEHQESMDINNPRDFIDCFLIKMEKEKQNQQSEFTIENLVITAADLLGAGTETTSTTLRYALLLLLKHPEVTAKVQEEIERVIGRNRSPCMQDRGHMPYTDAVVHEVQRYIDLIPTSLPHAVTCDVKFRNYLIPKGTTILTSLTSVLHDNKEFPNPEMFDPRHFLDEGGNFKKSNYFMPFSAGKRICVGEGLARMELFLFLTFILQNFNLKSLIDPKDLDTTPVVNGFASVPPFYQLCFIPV

Cytochrome P450 2C9 [6] = target: T1, Cytochrome P450 2C9; assay: Normalized intrinsic clearance assessed as human recombinant CYP2C9-mediated drug depletion per pmol protein by LC-MS/MS method; format: ADME; conditions: recombinant enzyme
Cytochrome P450 2D6 [7] = target: T4, Cytochrome P450 2D6 (Homo sapiens, UniProt P10635); assay: Normalized intrinsic clearance assessed as human recombinant CYP2D6-mediated drug depletion per pmol protein by LC-MS/MS method; format: ADME; conditions: recombinant enzyme
T4 sequence (P10635 whole entry): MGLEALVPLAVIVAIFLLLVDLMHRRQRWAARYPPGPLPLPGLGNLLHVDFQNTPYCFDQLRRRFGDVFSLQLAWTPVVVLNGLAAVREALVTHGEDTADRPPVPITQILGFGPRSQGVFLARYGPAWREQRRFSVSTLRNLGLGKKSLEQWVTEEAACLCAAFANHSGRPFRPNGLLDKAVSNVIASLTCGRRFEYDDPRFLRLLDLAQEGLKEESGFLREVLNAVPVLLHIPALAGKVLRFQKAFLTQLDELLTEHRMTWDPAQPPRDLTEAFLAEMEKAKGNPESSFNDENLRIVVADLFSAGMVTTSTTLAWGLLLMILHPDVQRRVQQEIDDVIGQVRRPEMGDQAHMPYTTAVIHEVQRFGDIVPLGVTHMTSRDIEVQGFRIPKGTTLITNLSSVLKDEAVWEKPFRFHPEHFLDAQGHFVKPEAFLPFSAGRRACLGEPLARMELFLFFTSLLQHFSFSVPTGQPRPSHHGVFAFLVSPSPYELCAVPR

Cytochrome P450 2J2 [8] = target: T5, Cytochrome P450 2J2 (Homo sapiens, UniProt P51589); assay: Normalized intrinsic clearance assessed as human recombinant CYP2J2-mediated drug depletion per pmol protein by LC-MS/MS method; format: ADME; conditions: recombinant enzyme
T5 sequence (P51589 whole entry): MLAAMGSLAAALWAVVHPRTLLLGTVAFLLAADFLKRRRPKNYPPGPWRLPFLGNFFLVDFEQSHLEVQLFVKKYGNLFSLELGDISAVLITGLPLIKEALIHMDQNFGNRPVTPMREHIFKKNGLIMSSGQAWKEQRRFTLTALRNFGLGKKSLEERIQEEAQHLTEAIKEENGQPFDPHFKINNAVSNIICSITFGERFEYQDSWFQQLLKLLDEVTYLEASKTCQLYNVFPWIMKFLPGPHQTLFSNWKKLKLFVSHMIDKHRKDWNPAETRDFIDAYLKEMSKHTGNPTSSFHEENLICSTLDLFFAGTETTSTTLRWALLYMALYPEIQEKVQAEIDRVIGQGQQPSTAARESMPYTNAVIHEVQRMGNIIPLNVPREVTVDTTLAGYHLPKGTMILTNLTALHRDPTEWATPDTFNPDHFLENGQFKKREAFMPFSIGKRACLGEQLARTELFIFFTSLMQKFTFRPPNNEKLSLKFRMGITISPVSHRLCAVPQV

Cytochrome P450 2C19 [9] = target: T3, Cytochrome P450 2C19; assay: Fraction metabolized assessed as human recombinant CYP2C19-mediated drug depletion by LC-MS/MS method relative to total normalized intrinsic clearance; format: ADME; conditions: recombinant enzyme
Cytochrome P450 2D6 [10] = target: T4, Cytochrome P450 2D6; assay: Fraction metabolized assessed as human recombinant CYP2D6-mediated drug depletion by LC-MS/MS method relative to total normalized intrinsic clearance; format: ADME; conditions: recombinant enzyme
Cytochrome P450 2J2 [11] = target: T5, Cytochrome P450 2J2; assay: Fraction metabolized assessed as human recombinant CYP2J2-mediated drug depletion by LC-MS/MS method relative to total normalized intrinsic clearance; format: ADME; conditions: recombinant enzyme
Plasma [12] = assay: Drug level in human plasma treated with [14C}LY2452473 at 15 mg, po after 1 hr administered as single dose by HPLC analysis; format: ADME, organism-based; conditions: in vivo
Plasma [13] = assay: Drug level in human plasma treated with [14C}LY2452473 at 15 mg, po after 2 hrs administered as single dose by HPLC analysis; format: ADME, organism-based; conditions: in vivo
Plasma [14] = assay: Drug level in human plasma treated with [14C}LY2452473 at 15 mg, po after 24 hrs administered as single dose by HPLC analysis; format: ADME, organism-based; conditions: in vivo
Plasma [15] = assay: Drug level in human plasma treated with [14C}LY2452473 at 15 mg, po after 48 hrs administered as single dose by HPLC analysis; format: ADME, organism-based; conditions: in vivo

Sequence of Cytochrome P450 3A4 (P08684 whole entry): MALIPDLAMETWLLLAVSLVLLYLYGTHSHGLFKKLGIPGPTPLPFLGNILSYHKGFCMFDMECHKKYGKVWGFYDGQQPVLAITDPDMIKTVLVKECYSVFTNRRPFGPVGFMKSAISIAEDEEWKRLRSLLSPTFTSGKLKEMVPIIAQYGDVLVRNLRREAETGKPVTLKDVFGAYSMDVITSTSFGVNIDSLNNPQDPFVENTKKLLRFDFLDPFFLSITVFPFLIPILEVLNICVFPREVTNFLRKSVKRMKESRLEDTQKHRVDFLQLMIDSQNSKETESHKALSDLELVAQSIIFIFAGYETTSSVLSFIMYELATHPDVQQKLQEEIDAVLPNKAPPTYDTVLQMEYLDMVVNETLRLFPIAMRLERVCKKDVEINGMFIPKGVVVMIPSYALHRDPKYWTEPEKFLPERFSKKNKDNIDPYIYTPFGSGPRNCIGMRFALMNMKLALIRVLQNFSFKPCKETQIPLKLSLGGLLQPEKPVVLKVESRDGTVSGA

With CC(C)OC(=O)N[C@H]1Cc2c(n(Cc3ccccn3)c3ccc(C#N)cc23)C1 [LY2452473] the Drug metabolism (Cytochrome P450 3A4) was “metabolite_not_detected”, the Drug metabolism (Cytochrome P450 2C9 [1]) was “metabolite_not_detected” and the dose excreted [2] was 1.84%. For the same compound, the Drug metabolism [3] was “metabolite_detected”, the Drug metabolism (Cytochrome P450 2C8) was “metabolite_not_detected” and the Drug metabolism (Cytochrome P450 2E1) was “metabolite_not_detected”. For the same compound, the CL (Cytochrome P450 2C9 [4]) was 0.1 µL/min, the CL (Cytochrome P450 2C19 [5]) was 0.3 µL/min and the CL (Cytochrome P450 2C9 [6]) was 10 µL/min. For the same compound, the CL (Cytochrome P450 2D6 [7]) was 3 µL/min, the CL (Cytochrome P450 2J2 [8]) was 18 µL/min and the Fm (Cytochrome P450 2C19 [9]) was 4.9%. For the same compound, the Fm (Cytochrome P450 2D6 [10]) was 2.6%, the Fm (Cytochrome P450 2J2 [11]) was 15% and the Drug uptake (Plasma [12]) was 74.5%. The Drug uptake (Plasma [13]) was 72.93%, the Drug uptake (Plasma [14]) was 28.81% and the Drug uptake (Plasma [15]) was 27.67%.
